Counter-ions that a name gives are not always drawn. Numbered stars: 1 amine (or outer) side, 2 acyl side, 3 side chain; on linkers, the order of the positions; unused ones are H or OH. Bridge positions count the residues as written; N and C are the ends. Square brackets hold non-standard residues; d marks the D form. Peptide text beside a SMILES is read from it. * marks the point of attachment. TBMB(SCH2CH2NH-DOTA) = O=C(O)CN1CCN(CC(=O)O)CCN(CC(=O)NCCSCc2cc(C[*:1])cc(C[*:2])c2)CCN(CC(=O)O)CC1; 1Nal = N[C@@H](Cc1cccc2ccccc12)C(=O)O; β3hC = N[C@@H](CS)CC(=O)O; Hexanoyl = CCCCCC(=O)*
Legend:
[1] = target: T1, human recombinant DPP4 protein (Homo sapiens, UniProt P27487); assay: Inhibitory activity against DPP4 protease activity (H-Gly-Pro-AMC fluorescence); type: biochemical; conditions: 125 pM DPP4 working solution, 90 min at room temperature
T1 construct: purchased Acrobiosystems DP4-H5211
T1 sequence (P27487 whole entry): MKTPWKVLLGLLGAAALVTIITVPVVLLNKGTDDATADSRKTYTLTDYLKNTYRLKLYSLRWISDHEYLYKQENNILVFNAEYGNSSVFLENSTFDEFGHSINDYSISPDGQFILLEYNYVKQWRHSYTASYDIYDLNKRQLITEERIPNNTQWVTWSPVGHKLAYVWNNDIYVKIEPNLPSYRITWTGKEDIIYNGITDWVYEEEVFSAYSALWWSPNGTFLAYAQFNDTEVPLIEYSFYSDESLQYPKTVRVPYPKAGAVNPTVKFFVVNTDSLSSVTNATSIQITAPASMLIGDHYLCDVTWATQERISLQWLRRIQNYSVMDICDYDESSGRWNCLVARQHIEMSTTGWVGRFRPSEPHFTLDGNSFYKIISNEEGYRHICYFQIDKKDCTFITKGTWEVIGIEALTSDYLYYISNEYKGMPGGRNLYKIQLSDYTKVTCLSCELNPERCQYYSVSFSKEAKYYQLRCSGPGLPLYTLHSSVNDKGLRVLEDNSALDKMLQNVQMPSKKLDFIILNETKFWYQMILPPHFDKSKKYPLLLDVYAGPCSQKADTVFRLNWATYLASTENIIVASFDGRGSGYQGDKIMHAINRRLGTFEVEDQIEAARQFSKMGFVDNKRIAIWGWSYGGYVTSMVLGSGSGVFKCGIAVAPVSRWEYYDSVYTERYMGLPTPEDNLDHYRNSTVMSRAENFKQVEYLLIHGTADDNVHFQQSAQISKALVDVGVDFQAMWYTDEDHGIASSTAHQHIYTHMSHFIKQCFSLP
Protocol: The human recombinant DPP4 protein (Acrobiosystems, DP4-H5211) was formulated into a 125 pM working solution with an assay buffer (20 mM Tris-HCl, 100 mM NaCl), and the DPP4 substrate (H-Gly-Pro-AMC.HBr (LEONBIO, 115035-46-6)) was diluted to a 250 µM DPP4 substrate working solution with the assay buffer. 40 µl of DPP4 working solution and 20 µl of compounds at different concentrations (4-fold dilution) were taken, then 40 µl of DPP4 substrate working solution was added, and the mixture was uniformly mixed on a shaker at room temperature for 1 min. The uniformly mixed mixture was reacted at room temperature in the dark for 90 min. Reading was made by microplate reader at excitation and emission wavelengths of 380 nm and 460 nm. The original data was saved, and the IC50 value of the compound was obtained by analyzing the data with Graphpad PRISM.

in vitro = conditions: CD-1, mouse, plasma
Protocol: The plasma stability experiment was performed using plasma from CD-1 mice. The compounds were diluted to a concentration of 1 mM with methanol. To 0.792 mL of plasma, 8.00 µL of 1 mM of each test compound was added, and 50.0 µL of the plasma sample was taken after uniform mixing. The remaining sample was placed in a 37°C water bath and incubated for 24 h. […] After centrifugation, the sample was diluted 1-fold with 0.2% trifluoroacetic acid and analyzed by LC-MS/MS.

[2] = target: T2, human recombinant FAP protein (Homo sapiens, UniProt Q12884); assay: Inhibitory activity against FAP protease activity (Z-Gly-Pro-AMC fluorescence); type: biochemical; conditions: 125 pM FAP working solution, 90 min at room temperature; read-out: FAP IC50
T2 construct: purchased Acrobiosystems FAP-H82Q6
T2 sequence (Q12884 1-760): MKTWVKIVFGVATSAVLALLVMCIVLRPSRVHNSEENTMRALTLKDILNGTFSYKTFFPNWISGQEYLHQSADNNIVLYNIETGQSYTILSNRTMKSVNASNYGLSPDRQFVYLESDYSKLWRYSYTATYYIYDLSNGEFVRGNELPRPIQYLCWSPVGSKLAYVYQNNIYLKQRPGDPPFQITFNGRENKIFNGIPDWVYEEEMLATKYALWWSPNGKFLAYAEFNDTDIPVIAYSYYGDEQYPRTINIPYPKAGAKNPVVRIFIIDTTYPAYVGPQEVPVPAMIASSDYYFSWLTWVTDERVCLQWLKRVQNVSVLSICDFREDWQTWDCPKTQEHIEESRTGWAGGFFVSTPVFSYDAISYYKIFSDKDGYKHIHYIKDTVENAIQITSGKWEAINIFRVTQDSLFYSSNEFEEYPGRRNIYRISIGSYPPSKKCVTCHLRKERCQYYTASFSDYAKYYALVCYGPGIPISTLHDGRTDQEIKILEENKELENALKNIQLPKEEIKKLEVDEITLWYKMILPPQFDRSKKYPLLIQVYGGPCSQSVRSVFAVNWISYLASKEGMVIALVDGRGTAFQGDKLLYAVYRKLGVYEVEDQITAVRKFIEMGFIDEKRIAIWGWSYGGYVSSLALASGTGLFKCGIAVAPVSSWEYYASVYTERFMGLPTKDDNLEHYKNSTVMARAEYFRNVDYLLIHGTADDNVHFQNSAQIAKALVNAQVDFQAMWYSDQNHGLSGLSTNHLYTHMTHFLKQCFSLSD
Protocol: The human recombinant FAP protein (Acrobiosystems, FAP-H82Q6) was diluted to a 125 pM FAP working solution with an assay buffer (50 mM Tris-HCl, 1 M NaCl, 1 mg/mL BSA, pH 7.5), and the FAP substrate (Z-Gly-Pro-AMC (LEONBIO, 68542-93-8)) was diluted to a 150 µM substrate working solution with the assay buffer. 40 µl of FAP working solution and 20 µl of compounds at different concentrations (4-fold dilution) were taken, then 40 µl of substrate working solution was added, and the mixture was uniformly mixed on a shaker at room temperature for 1 min. The uniformly mixed mixture was reacted at room temperature in the dark for 90 min. The fluorescence value Ex = 380 nm/Em = 460 nm was read by using a microplate reader. The original data was saved, and the IC50 value of the compound was obtained by using the original data or the Inhibition% via calculation and analyzing the data with Graphpad PRISM.

[3] = Pharmacokinetics after tail vein injection; type: in vivo, CD-1 mice; conditions: male, CD-1, mouse, in vivo, iv, 0.2 mg/kg
Protocol: Male CD-1 mice weighing 30-35 g were selected, and a test compound was injected into the tail vein at 0.2 mg/kg. Plasma samples were collected at 5, 15, 30, and 60 min and 2, 4, 8, and 24 h after administration and processed accordingly. The drug content was analyzed by LC-MS/MS.
Among them, compounds 20, 21 and 22 were compounds formed by chelating nonradioactive in with compounds 11, 14 and 16, respectively.

[4] = Distribution in tissues of HEK293-FAP tumor-bearing mice (gamma counter); type: in vivo, SCID mice; conditions: male, SCID, mouse, in vivo, 100 uCi, total radioactivity
Protocol: (§1) Male SCID mice (6-8 weeks old) were subcutaneously inoculated with 5 × 10^6 HEK293-FAP cells (FAP was highly expressed in HEK293 cells). 10 days later, 30 mice with tumor size of 200-300 mm^3 were randomly divided into 3 groups. Each mouse in the 3 groups was administered with compound ^177Lu-3BP-3554, compound 29 and compound 30 with a radiation dose of 100 µCi, respectively. Blood, kidney and tumor tissues were collected at time points of 4 h, 8 h, 24 h, 72 h and 168 h, and all blood samples and tissue samples were measured for radioactive counts by gamma counter.

HEK293-FAP cells = assay: as above; type: in vivo, SCID mice; conditions: for injection dose%/g tissue at different time points / tissue selectivity for kidney and blood tissues: mouse, in vivo; for Blood / Kidney / Tumor: 100 µCi, SCID mice with HEK293-FAP tumor
Protocol: as §1

CCCCCC(=O)N[C@H]1CSCc2cc(CSCCNC(=O)CN3CCN(CC(=O)O)CCN(CC(=O)O)CCN(CC(=O)O)CC3)cc(c2)CSC[C@@H](C(=O)O)NC(=O)[C@H](Cc2ccccc2)NC(=O)[C@H](CCC(N)=O)NC(=O)[C@H]([C@@H](C)O)NC(=O)[C@@H]2CCCN2C(=O)[C@@H]2CCCN2C1=O [Compound 3BP-3554, reference compound]
IC50 [1]: > 10000 nM | remaining at 24 h, 10 µM (in vitro): 87%

CCCCCC(=O)N[C@H]1CSCc2cc(CSCCNC(=O)CN3CCN(CC(=O)O)CCN(CC(=O)O)CCN(CC(=O)O)CC3)cc(c2)CSC[C@@H](CC(=O)O)NC(=O)[C@H](Cc2cccc3ccccc23)NC(=O)[C@H](CCC(N)=O)NC(=O)[C@H]([C@@H](C)O)NC(=O)[C@@H]2CCCN2C(=O)[C@@H]2CCCN2C1=O [Compound 11, Hex-Cys-Pro-Pro-Thr-Gln-1Nal-beta-HomoCys (Cys bridge TBMB (DOTA-AET)) trifluoroacetate] (Hexanoyl-CPPTQ[1Nal][β3hC]-OH; linker 1-7 via TBMB(SCH2CH2NH-DOTA))
IC50 [2]: 0.26 nM | IC50 [1]: > 10000 nM | remaining at 24 h, 10 µM (in vitro): 94%

CCCCCC(=O)N[C@H]1CSCc2cc(CSCCNC(=O)CN3CCN(CC(=O)O)CCN(CC(=O)O)CCN(CC(=O)O)CC3)cc(c2)CSC[C@@H](CC(=O)N[C@@H](Cc2ccc3ccccc3c2)C(=O)O)NC(=O)[C@H](Cc2ccccc2)NC(=O)[C@H](CCC(N)=O)NC(=O)[C@H]([C@@H](C)O)NC(=O)[C@@H]2CCCN2C(=O)[C@@H]2CCCN2C1=O [Compound 13, Hex-Cys-Pro-Pro-Thr-Gln-Phe-beta-HomoCys-2Nal (Cys bridge TBMB (DOTA-AET)) trifluoroacetate]
IC50 [2]: 0.97 nM | IC50 [1]: > 10000 nM | remaining at 24 h, 10 µM (in vitro): 100%

CCCCCC(=O)N[C@H]1CSCc2cccc(c2F)CSC[C@@H](CNC(=O)C[C@@H](C)NC(=O)[C@H]2CC[C@H](CNC(=O)CN3CCN(CC(=O)O)CCN(CC(=O)O)CCN(CC(=O)O)CC3)CC2)NC(=O)[C@H](Cc2ccccc2)NC(=O)[C@H](CCC(N)=O)NC(=O)[C@H]([C@@H](C)O)NC(=O)[C@@H]2CCCN2C(=O)[C@@H]2CCCN2C1=O [Compound 22]
AUC(0-t) [3]: 740 ng·h/mL | Cmax [3]: 1120 ng/mL | Vd [3]: 1.18 L/kg | clearance [3]: 4.33 mL/min/kg | half-life [3]: 7.93 h

CCCCCC(=O)N[C@H]1CSCc2cc(CSCCNC(=O)CN3CCN(CC(=O)O)CCN(CC(=O)O)CCN(CC(=O)O)CC3)cc(c2)CSC[C@@H](CC(=O)O)NC(=O)[C@H](Cc2cccc3ccccc23)NC(=O)[C@H](CCC(N)=O)NC(=O)[C@H]([C@@H](C)O)NC(=O)[C@@H]2CCCN2C(=O)[C@@H]2CCCN2C1=O [Compound 29] (Hexanoyl-CPPTQ[1Nal][β3hC]-OH; linker 1-7 via TBMB(SCH2CH2NH-DOTA))
tissue to tissue ratio at 4 h ([4]; Tumor/blood): 26.2 | tissue to tissue ratio at 8 h ([4]; Tumor/blood): 70.1 | tissue to tissue ratio at 24 h ([4]; Tumor/blood): 1630 | tissue to tissue ratio at 72 h ([4]; Tumor/blood): 2410 | tissue to tissue ratio at 168 h ([4]; Tumor/blood): 1160 | tissue to tissue ratio at 4 h ([4]; Tumor/kidney): 2.32 | tissue to tissue ratio at 8 h ([4]; Tumor/kidney): 3.18 | tissue to tissue ratio at 24 h ([4]; Tumor/kidney): 3.99 | tissue to tissue ratio at 72 h ([4]; Tumor/kidney): 7.12 | tissue to tissue ratio at 168 h ([4]; Tumor/kidney): 27.6 | injection dose%/g tissue at different time points (HEK293-FAP cells): significantly higher than that of ^177Lu-3BP-3554 | tissue selectivity for kidney and blood tissues (HEK293-FAP cells): better tissue selectivity for kidney and blood tissues than ^177Lu-3BP-3554

CCCCCC(=O)N[C@H]1CSCc2cccc(c2F)CSC[C@@H](CNC(=O)C[C@@H](C)NC(=O)[C@H]2CC[C@H](CNC(=O)CN3CCN(CC(=O)O)CCN(CC(=O)O)CCN(CC(=O)O)CC3)CC2)NC(=O)[C@H](Cc2ccccc2)NC(=O)[C@H](CCC(N)=O)NC(=O)[C@H]([C@@H](C)O)NC(=O)[C@@H]2CCCN2C(=O)[C@@H]2CCCN2C1=O [Compound 30]
tissue to tissue ratio at 4 h ([4]; Tumor/blood): 16.3 | tissue to tissue ratio at 8 h ([4]; Tumor/blood): 32.3 | tissue to tissue ratio at 24 h ([4]; Tumor/blood): 212 | tissue to tissue ratio at 72 h ([4]; Tumor/blood): 1100 | tissue to tissue ratio at 168 h ([4]; Tumor/blood): 484 | tissue to tissue ratio at 4 h ([4]; Tumor/kidney): 6.88 | tissue to tissue ratio at 8 h ([4]; Tumor/kidney): 5.56 | tissue to tissue ratio at 24 h ([4]; Tumor/kidney): 5.95 | tissue to tissue ratio at 72 h ([4]; Tumor/kidney): 6.98 | tissue to tissue ratio at 168 h ([4]; Tumor/kidney): 11.8 | injection dose%/g tissue at different time points (HEK293-FAP cells): significantly higher than that of ^177Lu-3BP-3554 | tissue selectivity for kidney and blood tissues (HEK293-FAP cells): better tissue selectivity for kidney and blood tissues than ^177Lu-3BP-3554

CCCCCC(=O)N[C@H]1CSCc2cc(CSCCNC(=O)CN3CCN(CC(=O)O)CCN(CC(=O)O)CCN(CC(=O)O)CC3)cc(c2)CSC[C@@H](C(=O)O)NC(=O)[C@H](Cc2ccccc2)NC(=O)[C@H](CCC(N)=O)NC(=O)[C@H]([C@@H](C)O)NC(=O)[C@@H]2CCCN2C(=O)[C@@H]2CCCN2C1=O [^177Lu-3BP-3554, metal not drawn, reference compound]
Blood (HEK293-FAP cells; 4 h): 0.07 ID %/g | Kidney (HEK293-FAP cells; 4 h): 6.65 ID %/g | Tumor (HEK293-FAP cells; 4 h): 21.21 ID %/g | Blood (HEK293-FAP cells; 8 h): 0.02 ID %/g | Kidney (HEK293-FAP cells; 8 h): 6.37 ID %/g | Tumor (HEK293-FAP cells; 8 h): 18.42 ID %/g | Blood (HEK293-FAP cells; 24 h): 0.01 ID %/g | Kidney (HEK293-FAP cells; 24 h): 2.92 ID %/g | Tumor (HEK293-FAP cells; 24 h): 10.37 ID %/g | Blood (HEK293-FAP cells; 72 h): 0.0038 ID %/g | Kidney (HEK293-FAP cells; 72 h): 0.86 ID %/g | Tumor (HEK293-FAP cells; 72 h): 5.05 ID %/g | Blood (HEK293-FAP cells; 168 h): 0.0091 ID %/g | Kidney (HEK293-FAP cells; 168 h): 0.16 ID %/g | Tumor (HEK293-FAP cells; 168 h): 1.52 ID %/g
